Blank lines part the entries; values can stand above or below the compound they belong to.
Tests used:
in vitro [1] = conditions: both, human; for microsomal CLint at 1 μM: s9, CLint; for half-life at 1 μM: s9, Half-life
Description: (§1) The reaction mixture, minus cofactors, was prepared as described below. The test article was added into the reaction mixture at a final concentration of 1 μM. […] An aliquot of the reaction mixture (without cofactor cocktail) was equilibrated in a shaking water bath at 37° C. for 3 minutes. The reaction was initiated by the addition of cofactor cocktail, and the mixture was incubated in a shaking water bath at 37° C. Aliquots (100 μL) were withdrawn at 0, 10, 20, 30, and 60 minutes. All samples were immediately combined with 400 uL of icecold 50/50 acetonitrile/H2O containing 0.1% formic acid and internal standard to terminate the reaction. The samples were then mixed and centrifuged to precipitate proteins. Calibration standards were prepared in matched matrix. All samples and standards were assayed by LC-MS/MS using electrospray ionization for both the dosed prodrug I-9 and the expected drug (PEA). Analytical conditions are outlined in Appendix 4-1. The test article concentration at each time point was compared to the test article concentration at time 0 to determine the percent remaining at each time point. Half-lives were calculated using GraphPad software, fitting to single-phase exponential decay equation.
(§2) Reaction mixture, minus cofactors, was prepared as described below. Test article was added into the reaction mixture at a final concentration of 1 μM. […] An aliquot of the reaction mixture (without cofactor cocktail) was equilibrated in a shaking water bath at 37° C. for 3 minutes. The reaction was initiated by the addition of cofactor cocktail, and the mixture was incubated in a shaking water bath at 37° C. Aliquots (100 μL) were withdrawn at 0, 10, 20, 30, and 60 minutes. Test article samples were immediately combined with 300 μL of ice-cold acetonitrile containing 1% formic acid. Control samples were immediately combined with 400 μL of ice-cold 50/50 acetonitrile (ACN)/dH2O containing 0.1% formic acid and internal standard to terminate the reaction. Samples were then mixed and centrifuged to precipitate proteins. Calibration standards were prepared in matched matrix. Samples and standards were assayed by LC-MS/MS using electrospray ionization for both the dosed prodrug and the expected drug (PEA). Analytical conditions are outlined in Appendix 8-1. Test article concentration at each time point was compared to test article concentration at time 0 to determine the percent remaining at each time point. Halflives were calculated using GraphPad software, fitting to a single-phase exponential decay equation.
as §2, with “for 5” for “for 3”, “minutes. Reaction” for “minutes. The reaction”, “and” for “and the”, “both” for “both the”, “Appendix 10-1.” for “Appendix 8-1.”
(§3) Reaction mixture, minus cofactors, was prepared as described below.

in vitro [2] = conditions: male, Sprague-Dawley, rat
Description: as §1, §2
as §2, with “for 5” for “for 3”, “minutes. Reaction” for “minutes. The reaction”, “and” for “and the”, “both” for “both the”, “Appendix 10-1.” for “Appendix 8-1.”
as §3

in vitro [3] = conditions: male, Beagle, dog, 1 μM
Description: as §2
as §2, with “for 5” for “for 3”, “minutes. Reaction” for “minutes. The reaction”, “and” for “and the”, “both” for “both the”, “Appendix 10-1.” for “Appendix 8-1.”
Reaction mixture, minus cofactors, was prepared as described below. Test article was added into the reaction mixture at a final concentration of 1 μM. […] An aliquot of the reaction mixture (without cofactor cocktail) was equilibrated in a shaking water bath at 37° C. for 3 minutes. Reaction was initiated by the addition of cofactor cocktail, and the mixture was incubated in a shaking water bath at 37° C. Aliquots (100 μL) were withdrawn at 0, 10, 20, 30, and 60 minutes. Test article samples were immediately combined with 300 μL of ice-cold acetonitrile containing 1% formic acid. Control samples were immediately combined with 400 μL of ice-cold 50/50 acetonitrile (ACN)/dH2O containing 0.1% formic acid and internal standard to terminate the reaction. Samples were then mixed and centrifuged to precipitate proteins. Calibration standards were prepared in matched matrix. Samples and standards were assayed by LC-MS/MS using electrospray ionization for both dosed prodrug and expected drug (PEA). Analytical conditions are outlined in Appendix 13-1. Test article concentration at each time point was compared to test article concentration at time 0 to determine the percent remaining at each time point. Halflives were calculated using GraphPad software, fitting to a single-phase exponential decay equation.

Concentration (μM) of analyte PEA, 0 min (in vitro [1]; 0 min, 1 μM): 0.018 µM | Concentration (μM) of analyte PEA, 10 min (in vitro [1]; 10 min, 1 μM): 0.13 µM | Concentration (μM) of analyte PEA, 20 min (in vitro [1]; 20 min, 1 μM): 0.20 µM | Concentration (μM) of analyte PEA, 30 min (in vitro [1]; 30 min, 1 μM): 0.21 µM | Concentration (μM) of analyte PEA, 60 min (in vitro [1]; 60 min, 1 μM): 0.18 µM | % Remaining of Initial (n = 1), 0 min (in vitro [1]; s9, 0 h, 1 μM): 100% | % Remaining of Initial (n = 1), 10 min (in vitro [1]; s9, 10 min, 1 μM): 4.1% | % Remaining of Initial (n = 1), 20 min (in vitro [1]; s9, 20 min, 1 μM): 1.2% | % Remaining of Initial (n = 1), 30 min (in vitro [1]; s9, 0.5 h, 1 μM): <1.0% | % Remaining of Initial (n = 1), 60 min (in vitro [1]; s9, 1 h, 1 μM): <1.0% | Concentration (μM) of analyte PEA, 0 min (in vitro [2]; 0 min, 1 μM): 0 µM | Concentration (μM) of analyte PEA, 10 min (in vitro [2]; 10 min, 1 μM): 0.13 µM | Concentration (μM) of analyte PEA, 20 min (in vitro [2]; 20 min, 1 μM): 0.24 µM | Concentration (μM) of analyte PEA, 30 min (in vitro [2]; 30 min, 1 μM): 0.35 µM | Concentration (μM) of analyte PEA, 60 min (in vitro [2]; 60 min, 1 μM): 0.38 µM | % Remaining of Initial (n = 1), 0 min (in vitro [2]; s9, 0 h, 1 μM): 100% | % Remaining of Initial (n = 1), 10 min (in vitro [2]; s9, 10 min, 1 μM): 1.4% | % Remaining of Initial (n = 1), 20 min (in vitro [2]; s9, 20 min, 1 μM): <1.0% | % Remaining of Initial (n = 1), 30 min (in vitro [2]; s9, 0.5 h, 1 μM): <1.0% | % Remaining of Initial (n = 1), 60 min (in vitro [2]; s9, 1 h, 1 μM): <1.0% | microsomal CLint at 1 μM (in vitro [2]; s9, CLint (mL/min/mg protein)): 425 µL/min/mg | half-life at 1 μM (in vitro [2]; s9, Half-life (min)): 0.0267 h | Concentration (μM) of analyte PEA, 0 min (in vitro [3]; 0 min): 0.032 µM | Concentration (μM) of analyte PEA, 10 min (in vitro [3]; 10 min): 0.23 µM | Concentration (μM) of analyte PEA, 20 min (in vitro [3]; 20 min): 0.38 µM | Concentration (μM) of analyte PEA, 30 min (in vitro [3]; 30 min): 0.74 µM | Concentration (μM) of analyte PEA, 60 min (in vitro [3]; 60 min): 0.88 µM | % Remaining of Initial (n = 1), 0 min (in vitro [3]; s9, 0 h): 100% | % Remaining of Initial (n = 1), 10 min (in vitro [3]; s9, 10 min): 1.8% | % Remaining of Initial (n = 1), 20 min (in vitro [3]; s9, 20 min): <1.0% | % Remaining of Initial (n = 1), 30 min (in vitro [3]; s9, 0.5 h): <1.0% | % Remaining of Initial (n = 1), 60 min (in vitro [3]; s9, 1 h): <1.0%
Compound: CCCCCCCCCCCCCCCC(=O)NCCOC(=O)CCC(=O)OCC(COC(=O)CCC)OC(=O)CCC (stereo not shown) [Compound I-11]

Concentration, analyte PEA (in vitro [1]; 0 min, 1 μM): 0 nM | Concentration, analyte PEA (in vitro [1]; 10 min, 1 μM): 10 nM | Concentration, analyte PEA (in vitro [1]; 20 min, 1 μM): 14 nM | Concentration, analyte PEA (in vitro [1]; 30 min, 1 μM): 18 nM | Concentration, analyte PEA (in vitro [1]; 60 min, 1 μM): 31 nM | % Remaining of Initial (n = 1) (in vitro [1]; s9, 0 h, 1 μM): 100% | % Remaining of Initial (n = 1) (in vitro [1]; s9, 10 min, 1 μM): 86% | % Remaining of Initial (n = 1) (in vitro [1]; s9, 20 min, 1 μM): 86% | % Remaining of Initial (n = 1) (in vitro [1]; s9, 0.5 h, 1 μM): 86% | % Remaining of Initial (n = 1) (in vitro [1]; s9, 1 h, 1 μM): 59% | microsomal CLint at 1 μM (in vitro [1]): < 11.6 µL/min/mg | microsomal CLint at 1 μM (in vitro [1]; calculated (in parentheses)): 7.57 µL/min/mg | half-life at 1 μM (in vitro [1]): > 1 h | half-life at 1 μM (in vitro [1]; calculated (in parentheses)): 1.53 h | Concentration, analyte PEA (in vitro [2]; 0 min, 1 μM): 0 nM | Concentration, analyte PEA (in vitro [2]; 10 min, 1 μM): 20 nM | Concentration, analyte PEA (in vitro [2]; 20 min, 1 μM): 48 nM | Concentration, analyte PEA (in vitro [2]; 30 min, 1 μM): 64 nM | Concentration, analyte PEA (in vitro [2]; 60 min, 1 μM): 92 nM | % Remaining of Initial (n = 1) (in vitro [2]; s9, 0 h, 1 μM): 100% | % Remaining of Initial (n = 1) (in vitro [2]; s9, 10 min, 1 μM): 80% | % Remaining of Initial (n = 1) (in vitro [2]; s9, 20 min, 1 μM): 82% | % Remaining of Initial (n = 1) (in vitro [2]; s9, 0.5 h, 1 μM): 81% | % Remaining of Initial (n = 1) (in vitro [2]; s9, 1 h, 1 μM): 55% | microsomal CLint at 1 μM (in vitro [2]; s9, CLint): < 11.6 µL/min/mg | microsomal CLint at 1 μM (in vitro [2]; s9, CLint, calculated (in parentheses)): 8.59 µL/min/mg | half-life at 1 μM (in vitro [2]; s9, Half-life): > 1 h | half-life at 1 μM (in vitro [2]; s9, Half-life, calculated (in parentheses)): 1.35 h | Concentration, analyte PEA (in vitro [3]; 0 min): 58 nM | Concentration, analyte PEA (in vitro [3]; 10 min): 95 nM | Concentration, analyte PEA (in vitro [3]; 20 min): 100 nM | Concentration, analyte PEA (in vitro [3]; 30 min): 89 nM | Concentration, analyte PEA (in vitro [3]; 60 min): 170 nM | % Remaining of Initial (n = 1) (in vitro [3]; s9, 0 h): 100% | % Remaining of Initial (n = 1) (in vitro [3]; s9, 10 min): 67% | % Remaining of Initial (n = 1) (in vitro [3]; s9, 20 min): 63% | % Remaining of Initial (n = 1) (in vitro [3]; s9, 0.5 h): 46% | % Remaining of Initial (n = 1) (in vitro [3]; s9, 1 h): 49%
Compound: CCCCC/C=C\C/C=C\CCCCCCCC(=O)OCC(COC(=O)CCC(=O)OCCNC(=O)CCCCCCCCCCCCCCC)OC(=O)CCCCCCC/C=C\C/C=C\CCCCC (stereo not shown) [Compound I-13]

Source: US11547681B2, “N-acylethanolamide derivatives and uses thereof” (ELIEM THERAPEUTICS, INC., priority 2016, dated 2023)
